Active and inactive are the calls of the source. The rule behind the calls is not given here.
Assays:
Candida albicans [1] = assay: Antifungal activity against Candida albicans ATCC 10231 by broth dilution method; assay type: functional
Candida albicans [2] = assay: Antifungal activity against Candida albicans CA5 by broth dilution method; assay type: functional
Pichia kudriavzevii [3] = assay: Antifungal activity against Candida krusei ATCC 34135 by broth dilution method; assay type: functional
Candida parapsilosis [4] = assay: Antifungal activity against Candida parapsilosis C27 by broth dilution method; assay type: functional; conditions: Lodderomyces parapsilosis
Aspergillus fumigatus = assay: Antifungal activity against Aspergillus fumigatus ATCC 13073 by broth dilution method; assay type: functional
Fusarium oxysporum = assay: Antifungal activity against Fusarium oxysporum AB18 by broth dilution method; assay type: functional
Microsporum canis = assay: Antifungal activity against Microsporum canis DMT2 by broth dilution method; assay type: functional
[5] = tested on: Trichophyton mentagrophytes; assay: Antifungal activity against Trichophyton mentagrophytes DMT4 by broth dilution method; assay type: functional
MRC5 = assay: Cytotoxicity against human MRC5 cells after 48 hrs by MTT assay; assay type: cell-based; conditions: MRC5, 48 h
[6] = Selectivity index, ratio of IC50 for human MRC5 cell to MIC for Candida albicans CA5
[7] = Hemolytic effect in sheep RBC assessed as release of hemoglobin at MIC after 1 hr; assay type: ADME, cell-based, Ovis aries, Erythrocyte; conditions: sheep red blood cells, read-out: Activity
[8] = Hemolytic effect in sheep RBC assessed as release of hemoglobin at cytotoxic IC50 after 1 hr; assay type: cell-based, Ovis aries, Erythrocyte; conditions: sheep red blood cells, read-out: Activity
[9] = Induction of membrane damage in PC/PS/E liposome assessed as calcein release at MIC after 30 mins by fluorescence-based liposome leakage assay; assay type: functional
Candida albicans [10] = assay: Induction of DNA intercalation with Candida albicans genomic DNA at 25 ug/ml after 12 hrs by ethidium bromide staining based gel electrophoresis method
Candida albicans [11] = assay: Antibiofilm activity against Candida albicans assessed as inhibition of Spider medium-induced hyphae formation at sub-MIC after 24 hrs by propidium iodide and FITC-conjugated concanavaline A staining based fluorescence microscopy; assay type: functional, organism-based
Candida albicans [12] = assay: Antibiofilm activity against Candida albicans ATCC 10231 assessed as disruption of preformed biofilm after 24 hrs by concanavalin A-FITC-staining based fluorescence microscopic analysis; assay type: functional
Pichia kudriavzevii [13] = assay: Antibiofilm activity against Pichia kudriavzevii ATCC 34135 assessed as disruption of preformed biofilm after 24 hrs by concanavalin A-FITC-staining based fluorescence microscopic analysis; assay type: functional
Candida parapsilosis [14] = assay: Antibiofilm activity against Candida parapsilosis C27 assessed as disruption of preformed biofilm after 24 hrs by concanavalin A-FITC-staining based fluorescence microscopic analysis; assay type: functional

SMILES | MIC (Candida albicans [1]) | MIC (Candida albicans [2]) | MIC (Pichia kudriavzevii [3]) | MIC (Candida parapsilosis [4]) | MIC (Aspergillus fumigatus) | MIC (Fusarium oxysporum) | MIC (Microsporum canis) | MIC [5] | IC50 (MRC5) | Selectivity Index [6] | hemolysis at 1 h [7] | hemolysis at 1 h [8] | Activity [9] | Activity (Candida albicans [10]) | Activity (Candida albicans [11]) | MBEC (Candida albicans [12]) | MBEC (Pichia kudriavzevii [13]) | MBEC (Candida parapsilosis [14])
Cl.Cl.N=C(N)N/N=C/c1ccc(-c2ccc(-c3ccc(/C=N/NC(=N)N)cc3)s2)cc1 | 3.9 µg/mL | 0.25 µg/mL | 50 µg/mL | 50 µg/mL | 25 µg/mL | > 250 µg/mL | 0.25 µg/mL | 0.25 µg/mL | 5 µg/mL | 20 | ≤ 10% | ≤ 10% | 7% | Active | inactive | 250 µg/mL | 1000 µg/mL | 1000 µg/mL
COc1ccc(-c2ccc(/C=N/NC(=N)N)s2)cc1.Cl | 7.8 µg/mL | 3.9 µg/mL | 6.25 µg/mL | 6.25 µg/mL | 25 µg/mL | > 250 µg/mL | 0.97 µg/mL | 3.12 µg/mL | 5 µg/mL |  | ≤ 10% | ≤ 10% |  | Active | Active | 500 µg/mL | 1000 µg/mL | 1000 µg/mL
